How the values were obtained:
[1] = biological target: Human recombinant PDE 5A (Homo sapiens, UniProt O76074); assay: Phosphodiesterase assay; assay type: biochemical; settings: for % PDE 5 inhibition at 10 μM: recombinant human PDE5, 10 μM, duplicate values
[2] = test system: MDA-MB-231 breast tumor cell line; assay: Growth inhibition of MDA-MB-231 breast tumor cell line; assay type: cell-based, human; settings: for inhibition at 10 µM: Homo sapiens, MDA-MB-231, read-out: % growth inhibition at 10 μM

| SMILES | % PDE 5 inhibition at 10 μM [1] | inhibition at 10 µM [2] [%] | further results |
| --- | --- | --- | --- |
| COC(=O)[C@@H]1Cc2c([nH]c3ccccc23)[C@H](c2c(Cl)cccc2Cl)N1 [Compound 10, (1S,3S)Methyl-1-(2,6-dichlorophenyl)-2,3,4,9-tetrahydro-1H-β-carboline-3-carboxylate] | inactive | – | – |
| CCN1C(=O)[C@@H]2Cc3c([nH]c4ccccc34)[C@@H](c3ccc(Cl)cc3Cl)N2C1=O [Compound 14, (5R,11aS) 5-(2,4-Dichlorophenyl)-2-ethyl-5,6,11,11a-tetrahydro-1H-imidazo [1′,5′:1,6] pyrido[3,4-b]indole-1,3(2H)-dione] | – | – | selectivity index ([1]; IC50 of PDE11A (cGMP)/IC50 of PDE5A (cGMP)): > 200 |
| COC(=O)[C@H]1Cc2c([nH]c3ccccc23)[C@H](c2ccc(Cl)c(Cl)c2)N1 [Compound 6, (1S,3R)Methyl-1-(3,4-dichlorophenyl)-2,3,4,9-tetrahydro-1H-β-carboline-3-carboxylate] | – | – | IC50 ([2]; read-out: growth inhibition IC50 (μM) and CI at p < 0.05, MDA-MB-231, at least 8 concentrations, quadruple replicates, CI in brackets): < 10 µM |
| COC(=O)[C@H]1Cc2c([nH]c3ccccc23)[C@@H](c2c(Cl)cccc2Cl)N1 [Compound 9, (1R,3R)Methyl-1-(2,6-dichlorophenyl)-2,3,4,9-tetrahydro-1H-β-carboline-3 carboxylate] | inactive | – | – |
| COC(=O)[C@H]1Cc2c([nH]c3ccccc23)[C@H](c2ccc(Cl)cc2Cl)N1C(=O)CCl [Compound 32, (1S,3R)Methyl 1-(2,4-Dichlorophenyl)-2-(2-chloroacetyl)-2,3,4,9-tetrahydro-1H-β-carboline-3-carboxylate] | – | 98 | growth inhibitory potency relative to 31 ([2]; MDA-MB-231): ~10 times |
| COC(=O)[C@H]1Cc2c([nH]c3ccccc23)[C@@H](c2ccc(Cl)cc2Cl)N1C(=O)CCl [Compound 31, (1R,3R)Methyl 1-(2,4-Dichlorophenyl)-2-(2-chloroacetyl)-2,3,4,9-tetrahydro-1H-β-carboline-3-carboxylate] | – | 98 | – |
